Patent US10544142B2, “Crystal forms of palbociclib, and preparation method and use therefor” (SHANGHAI BEGREAT PHARMATECH, priority 2016, dated 2020)

Assays:
[1] = Dissolution rate in pH 6.8 buffer; format: physicochemical; conditions: comparison with crystal Forms A and B
[2] = Solubility of crystal Forms in pH 6.8 buffer (1 hour equilibration, filtration, HPLC); format: physicochemical; conditions: for Solubility in pH 6.8 buffer: 20 mg in 1 mL, equilibrated for 1 hour, 0.45 μm filter, HPLC; for solubility in pH 6.8 buffer compared to existing crystal Forms: comparison with crystal Forms A and B
Protocol: The solubility of several new crystal Forms prepared in the above examples and Form A and B (prepared according to the method of WO2014128588A1) in a pH buffer solution (pH 6.8) was determined. 20 mg Form VIII, Form IX, Form XIV, Form A and Form B was precisely weighed and placed in a 2-mL glass vial, 1 mL of pH 6.8 buffer was added, sealed with cap, and mixed on a rotating mixer. After the suspension was equilibrated for 1 hour, the mixture was filtered through a 0.45 μm needle filter, and the concentration of 6-Acetyl-8-cyclopentyl-5-methyl-2-(5-piperazin-1-yl-pyridin-2-ylamino)-8H-pyrido[2,3-d]pyrimidin-7-one in the filtrate was analyzed by HPLC to obtain the solubility of different crystal Forms. The solubility of the polymorphs of 6-Acetyl-8-cyclopentyl-5-methyl-2-(5-piperazin-1-yl-pyridin-2-ylamino)-8H-pyrido[2,3-d]pyrimidin-7-one is shown in the following table: […]

[3] = prior art statement; cited from earlier work

Row | Structure (SMILES) | dissolution rate in pH 6.8 buffer compared to existing crystal Forms [1] | Solubility in pH 6.8 buffer [2] [mg/mL] | solubility in pH 6.8 buffer compared to existing crystal Forms [2] | solubility in water [3]
1 | CC(=O)c1c(C)c2cnc(Nc3ccc(N4CCNCC4)cn3)nc2n(C2CCCC2)c1=O [Form VIII, 6-Acetyl-8-cyclopentyl-5-methyl-2-(5-piperazin-1-yl-pyridin-2-ylamino)-8H-pyrido[2,3-d]pyrimidin-7-one] | greater than the existing crystal Forms A and B | 0.010 | greater than the existing crystal Forms A and B | –
2 | CC(=O)c1c(C)c2cnc(Nc3ccc(N4CCNCC4)cn3)nc2n(C2CCCC2)c1=O [Form A, 6-Acetyl-8-cyclopentyl-5-methyl-2-(5-piperazin-1-yl-pyridin-2-ylamino)-8H-pyrido[2,3-d]pyrimidin-7-one, reference compound] | – | 0.002 | – | very small
3 | CC(=O)c1c(C)c2cnc(Nc3ccc(N4CCNCC4)cn3)nc2n(C2CCCC2)c1=O [Form B, 6-Acetyl-8-cyclopentyl-5-methyl-2-(5-piperazin-1-yl-pyridin-2-ylamino)-8H-pyrido[2,3-d]pyrimidin-7-one, reference compound] | – | 0.003 | – | very small
4 | CC(=O)c1c(C)c2cnc(Nc3ccc(N4CCNCC4)cn3)nc2n(C2CCCC2)c1=O [Form IX, 6-Acetyl-8-cyclopentyl-5-methyl-2-(5-piperazin-1-yl-pyridin-2-ylamino)-8H-pyrido[2,3-d]pyrimidin-7-one] | – | 0.015 | – | –
5 | CC(=O)c1c(C)c2cnc(Nc3ccc(N4CCNCC4)cn3)nc2n(C2CCCC2)c1=O [Form XIV, 6-Acetyl-8-cyclopentyl-5-methyl-2-(5-piperazin-1-yl-pyridin-2-ylamino)-8H-pyrido[2,3-d]pyrimidin-7-one] | greater than the existing crystal Forms A and B | 0.012 | greater than the existing crystal Forms A and B | –
6 | CC(=O)c1c(C)c2cnc(Nc3ccc(N4CCNCC4)cn3)nc2n(C2CCCC2)c1=O [Form XI, 6-Acetyl-8-cyclopentyl-5-methyl-2-(5-piperazin-1-yl-pyridin-2-ylamino)-8H-pyrido[2,3-d]pyrimidin-7-one] | greater than the existing crystal Forms A and B | – | greater than the existing crystal Forms A and B | –
